# How the values were obtained:
# [1] = tested on: monocyte/macrophage recruitment; experiment: Thioglycollate (TG)-induced mouse model of peritonitis: peritoneal lavage monocyte/macrophage counts; format: in vivo; conditions: dexamethasone 1 mg/kg QD PO Days 1-5; 48 h post-TG
# Experimental: A murine thioglycollate (TG)-induced model of peritonitis, where acute inflammation induced by intraperitoneal (IP) injection of TG results in a rapid increase in monocyte/macrophage migration into the peritoneal cavity, was employed to assess the effects of CVC on cell recruitment in vivo. The protocol was approved by the IACUC of Charles River Laboratories Preclinical Services, Montreal (PCS-MTL). The care and use of animals was conducted in accordance with the guidelines of the US National Research Council and the Canadian Council on Animal Care.
# Male C57BL/6 mice (n = 44; 8–10 weeks of age; Charles River Laboratories, Canada) were allocated to receive treatments via oral gavage (PO) on Days 1–5 in the following groups: non-disease control, vehicle control twice daily (BID), CVC 5 mg/kg/day (CVC5) BID, CVC 20 mg/kg/day (CVC20) BID, CVC 100 mg/kg/day (CVC100) BID, CVC20 QD, and positive control dexamethasone (corticosteroid known to reduce inflammation in a variety of animal models) 1 mg/kg QD (S1 Table). On Day 4, peritonitis was induced via IP injection of TG 3.85% (1 mL/animal) 2 hours post-dose in all groups except non-disease controls. Study endpoints included: peritoneal lavage cell counts and pharmacokinetic (PK) evaluation. Animals were sacrificed 48 hours post-TG injection by isoflurane inhalation, and peritoneal lavage and blood samples (0.7 mL) were collected. Differential cell counts were assessed in peritoneal lavage samples using an Advia® Hematology System (Siemens Healthcare Diagnostics, USA) with multispecies software and an analysis software designed for mouse peritoneal fluid on Advia® 120 (LabThruPut, USA). A 0.3 mL aliquot of the blood sample was processed to plasma for PK analysis.
# (§1) In the peritonitis mouse model, one-way analysis of variance with post-hoc Dunnett’s test was performed, using GraphPad Prism® (GraphPad Software, Inc., USA), on differential cell counts obtained from lavage in treatment groups versus the vehicle-control group. For the ex vivo migration of mouse monocytes, statistical significance was determined by a Student’s t test.
# [2] = tested on: CCL2-mediated chemotaxis of activated murine macrophages (F4/80+/CD11b+); experiment: Ex vivo CCL2-induced chemotaxis of activated mouse macrophages (Transwell); format: cell-based; conditions: CCL2-stimulated cells (1 nM CCL2), no CVC, 2 hours
# Experimental: Mouse monocyte migration in response to CVC treatment was assessed ex vivo in triplicate. TG was injected intraperitoneally into male C57BL/6 mice (n = 3; 8–10 weeks of age; Jackson Laboratory, USA) and activated macrophages were collected 48 hours later by peritoneal lavage. Chemotaxis was assayed using a Transwell® Chamber (Costar, USA) with a 5 μm-pore size polycarbonate filter, as previously described. Briefly, cells were incubated for 2 hours in the presence of 1 nM CCL2 and/or 1 μM CVC (dissolved in dimethyl sulfoxide with 0.5% acetic acid and diluted 1:1000 with serum-free Roswell Park Memorial Institute-1640 medium and 0.5% bovine serum albumin). Cells were harvested from the lower compartment and analyzed by flow cytometry to enumerate F4/80^+CD11b^+ macrophages using a 3-laser BD FACSCanto™ (BD Biosciences, Canada). Results were analyzed using FlowJo software (Tree Star Inc., USA).
# as §1
Molecule,Decrease in peritoneal lavage monocyte/macrophage counts compared to vehicle control [1],Average fold change in migrating cells (±SD) compared to untreated and unstimulated cells [2]
"C[C@@H]1C[C@H]2[C@@H]3CCC4=CC(=O)C=C[C@]4(C)[C@@]3(F)[C@@H](O)C[C@]2(C)[C@@]1(O)C(=O)CO [dexamethasone, reference compound]",38.1%,–
"CCL2: C-C chemokine ligand type 2, chemotaxis stimulus for activated macrophages [reference compound]",–,4.6±0.9 fold

# Source: paper PMC4922569, “Antifibrotic Effects of the Dual CCR2/CCR5 Antagonist Cenicriviroc in Animal Models of Liver and Kidney Fibrosis” (PLoS ONE, 2016)
